What was measured:
recombinant ADAM17 = target: T1, recombinant ADAM17 (Homo sapiens, UniProt P78536); assay: Cleavage of Fc-sema4D by recombinant ADAM17; assay type: biochemical; details: recombinant ADAM17 lacking the pro domain (FIG. 11)
T1 construct: incubated with recombinant ADAM17 lacking the pro domain
Description: FIG. 11 represents the cleavage of sema4D by ADAM17. Recombinant ADAM17 was incubated with Fc-sema4D in which the extracellular domain of human sema4D was joined via a linker to the N-terminus of IgG1 Fc. Two fragments were detected by amido black protein staining (left), the smaller of which (fragment #1) was also detectable with anti-Fc, as was the intact protein (middle). The N-terminal sequence of fragment #1 was determined.
The cleavage site within platelet sema4D/CD100 was determined by using the C-terminal sema4D/CD100 antibody to immunoprecipitate the 25-30 kDa fragment that includes the transmembrane domain and any remaining extracellular domain. […]
In an effort to determine whether sema4D is a direct substrate for ADAM17, a chimeric protein comprised of the extracellular domain of human sema4D fused to the N-terminus of an IgG Fc domain fragment (Ishida et al. 2003. Int Immunol 15:1027-1034) was incubated with recombinant ADAM17 lacking the pro domain (Milla et al. 1999. J Biol Chem 274:30563-30570). […] It has been determined that in platelets, as in lymphocytes, the extracellular domain of sema4D/CD100 is shed as a disulfide-linked dimer.

human platelets = assay: ADP-induced platelet aggregation; assay type: cell-based
Description: FIG. 9A represents human platelets that were stimulated with a low concentration of ADP±soluble a soluble chimera of the extracellular domain of sema4D/CD100 fused to IgGκ Fc. FIG. 9B represents an immunoblot of FcCD100 that was performed under reducing and non-reducing conditions using anti-Fc.
Soluble sema4D/CD100 caused an increase in ADP-induced aggregation (FIG. 9). In this experiment, soluble sema4D/CD100 was added as a fusion protein (referred to as FcSema4D or FcCD100) in which the entire extracellular domain of sema4D/CD100 was fused to an IgG Fc domain. The protein forms a disulfide-linked homodimer capable of activating sema4D/CD100 receptors (Ishida, I., et al., Int Immunol, 2003. 15(8): p. 1027-34). FcCD100 had no effect when added on its own (not shown). […] Therefore, it appears that stimulating a receptor for sema4D/CD100 on platelets potentiates platelet responses to ADP. Additional platelet agonists (especially collagen) are going to be explored using platelet accumulation on collagen under flow as an additional endpoint.

sema4D/CD100 [1] = assay: sema4D/CD100 surface expression on platelets by FACS; assay type: cell-based, human; details: platelets stimulated with PMA for 15 min or 60 min, FACS (FIG. 4B)
Description: (§1) FIG. 4 represents the effect of metalloprotease inhibitors on sema4D expression. […] Sema4D was precipitated and blotted with Abm30. Ig light and heavy chains are indicated.
Surface expression of sema4D/CD100 was detected by FACS using an antibody that recognizes the extracellular domain. Expression increased when the platelets were activated with PMA for 15 minutes (FIG. 1C). In contrast, the α-granule membrane protein, P-selectin, was detected only on activated platelets.
(§2) The observation that sema4D/CD100 cleavage occurs in washed platelets implies that the protease involved is intrinsic to the platelets and not a plasma protein. Platelets are known to contain a number of metalloproteases, including members of the MMP and ADAM families (Sheu, J. R., et al., Br J Pharmacol, 2004. 143(1): p. 193-201. Sawicki, G., et al., Nature, 1997. 386: p. 616-619. Sawicki, G., et al., Thromb. Haemost., 1998. 80: p. 836-839. Colciaghi, F., et al., Mol Med, 2002. 8(2): p. 67-74.).

sema4D/CD100 [2] = assay: sema4D/CD100 cleavage in activated platelets (immunoblot with Abm30); assay type: cell-based, human; details: for cleavage of sema4D/CD100: platelets stimulated with 100 nM PMA at 37° C. for 30 min, 20 μM TAPI-2 preincubated for 60 min (FIG. 4A), EDTA not shown
Source text: as §1, §2

Akt = Akt phosphorylation (pAkt473 immunoblot) in human platelets; assay type: cell-based; details: immunoblot for pAkt473, absent in resting platelets (FIG. 7)
Description: FIG. 7 represents an immunoblot for pAkt473 from human platelets that were stimulated with recombinant sema4D or thrombin.
Activation of the PI 3-kinase pathway was measured using phosphorylation of Akt as a surrogate. Akt phosphorylation normally occurs in platelets activated by collagen and other agonists. Akt phosphorylation was also recently shown to occur in endothelial cells stimulated with soluble sema4D/CD100 (Basile, et al. Mol Cell Biol. […]: 6889, 2005). In endothelial cells responses to sema4D/CD100 appear to be mediated by plexin-B1. In FIG. 7, human platelets were stimulated with a His-tagged protein corresponding to the human sema4D/CD100 exodomain. Platelet lysates were prepared and immunoblotted with an antibody specific for pAkt473. Thrombin was used as a positive control.

monocytes = details: cited from earlier work
sema4D/CD100 [3] = assay: Rate of sema4D/CD100 cleavage in stirred, PMA-activated platelets; assay type: cell-based, human; details: fibrinogen binding and aggregation inhibited by the peptide (not shown)
Description: Washed platelets were stimulated with 100 nM PMA in an aggregometer cuvette at 37° C. with or without stirring. Lysates were precipitated and blotted with antibody Abm30. The extent of platelet aggregation in the stirred samples is indicated below each lane.
To address the issue of whether the rate of sema4D/CD100 cleavage is different when aggregation is allowed to occur than when activation occurs in the absence of aggregation, platelets were activated with or without the stirring needed for platelet aggregates to form. PMA caused a time-dependent loss of intact sema4D/CD100 and the appearance of the C-terminal sema4D/CD100 fragment. The rate of cleavage was accelerated when aggregation was allowed to occur (FIG. 3). Even at its fastest, however, cleavage lagged behind aggregation.
Platelet aggregation study also included the use of washed platelets were stimulated with 100 nM PMA in an aggregometer cuvette at 37° C. with or without stirring. Lysates were precipitated and blotted with antibody Abm30.

T1 sequence (P78536 215-824): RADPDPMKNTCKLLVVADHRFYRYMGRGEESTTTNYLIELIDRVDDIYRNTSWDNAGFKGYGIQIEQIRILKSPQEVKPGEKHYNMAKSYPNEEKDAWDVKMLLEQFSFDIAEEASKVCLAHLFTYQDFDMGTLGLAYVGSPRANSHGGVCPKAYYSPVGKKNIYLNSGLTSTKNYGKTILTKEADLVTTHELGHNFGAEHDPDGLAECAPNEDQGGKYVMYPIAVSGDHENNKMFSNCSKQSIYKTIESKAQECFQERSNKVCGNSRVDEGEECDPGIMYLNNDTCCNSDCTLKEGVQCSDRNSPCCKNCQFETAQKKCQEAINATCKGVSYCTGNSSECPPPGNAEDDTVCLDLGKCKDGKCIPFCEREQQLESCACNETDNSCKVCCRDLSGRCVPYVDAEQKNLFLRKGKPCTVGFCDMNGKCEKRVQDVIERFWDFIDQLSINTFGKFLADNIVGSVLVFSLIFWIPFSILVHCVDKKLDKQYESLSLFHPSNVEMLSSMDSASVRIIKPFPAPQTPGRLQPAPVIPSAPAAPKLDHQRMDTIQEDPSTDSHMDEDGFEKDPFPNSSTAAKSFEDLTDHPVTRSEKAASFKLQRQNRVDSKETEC

Q: With “FcCD100: fusion protein in which the entire extracellular domain of sema4D/CD100 was fused to an IgG Fc domain; disulfide-linked homodimer” as the compound, how does the “cleavage by recombinant ADAM17” value (recombinant ADAM17) read?
A: Cleavage produced two identifiable fragments

Q: What about the “platelet aggregation in the presence of ADP” value (human platelets; low concentration of ADP (FIG. 9)) of the same compound?
A: caused an increase in platelet aggregation

Q: What about the “platelet aggregation, added on its own” value (human platelets; no ADP (not shown)) of the same compound?
A: no effect

Q: What does the source list for CC(C)C[C@H](CC(=O)NO)C(=O)N[C@H](C(=O)N[C@@H](C)C(=O)NCCN)C(C)(C)C [TAPI-2]?
A: loss of sema4D/CD100 surface expression (sema4D/CD100 [1]): prevented the loss of surface expression; sema4D/CD100 cleavage (sema4D/CD100 [2]; platelets activated by thrombin or SFLLRN (not shown)): abolished; cleavage of sema4D/CD100 (sema4D/CD100 [2]): inhibited

Q: With thrombin as the compound, how does the “pAkt in platelet lysates” value (Akt) read?
A: readily detectable

Q: With “soluble sema4D/CD100: in FIG. 7 a His-tagged protein corresponding to the human sema4D/CD100 exodomain” as the compound, how does the “pAkt in platelet lysates” value (Akt) read?
A: readily detectable

Q: What about the “half-maximal effects on monocytes” value (monocytes) of the same compound?
A: 5 to 10 ng/mL

Q: And the “maximal effects on monocytes” value (monocytes)?
A: 40 to 50 ng/mL

Q: For RGDS, which “rate of sema4D/CD100 cleavage” value (sema4D/CD100 [3]) is on record?
A: the rate of cleavage became more like that seen when the platelets were activated without stirring

Q: Which “cleavage of sema4D/CD100” value (sema4D/CD100 [2]) does the source give for O=C(O)CN(CCN(CC(=O)O)CC(=O)O)CC(=O)O [EDTA] here?
A: inhibited

Q: Which “cleavage of sema4D/CD100” value (sema4D/CD100 [2]) does the source give for CNC(=O)[C@H](Cc1c[nH]c2ccccc12)NC(=O)[C@@H](CC(=O)NO)CC(C)C [GM6001] here?
A: inhibited

— patent US20100040617A1, “Method of Using CD100 (or Sema4D) to Mediate Platelet Activation and Inflammatory Responses” (Trustees of the University of Pennsylvania, priority 2004, published 2010)
